# In US20100143441A1 (OsteoGeneX Inc., priority 2008, published 2010):
# Columns and labels:
# [1] = molecular target: SOST (Mus musculus, UniProt Q99P68); details: predetermined dose for a complete dosing schedule, micro-CT versus control mouse
# Protocol: (§1) A general method of identifying SOST antagonists involves evaluating the effects of antagonist candidates on bone formation under controlled conditions. Preferably bone formation is determined using micro-CT techniques on live animals. Preferred animals include rodents, more preferred are primates. Femur, tibia and vertebrae bones are particularly useful subjects for such study.
# Briefly, the test animal is treated with a predetermined dose of a SOST antagonist candidate.
# This can be accomplished by any suitable method, but is preferably performed on live animals to analyze the bone mineral content. […] A SOST antagonist candidate suitable for use as a SOST antagonist is identified by noting significant bone formation in the test animal when compared to the control animal. Bone formation in the test bone(s) of the test animal can be 0.5%, 1, 5, 10, 20, 30, 40, 50, 60, 70, 80, 90, 100, 200, 300, 400, 500, 600, 700, 800, 900 or 1000% more bone formation than is present in the same bones of the control animal. More preferably, bone formation can be 20%, most preferably 30% or 40%. Where necessary, levels of bone formation can be calculated by determining the volume of bone formation present in each animal. Calculations can be performed by constructing a 3-dimensional image of the bone formation and calculating the volume from the image with the aid of e.g., histomorphometry. […]
# [2] = test system: Wnt pathway; details: Wnt+Sclerostin+2.5, 6.3, 12.5 or 25 ng nortriptyline; compared with Wnt only and Wnt+Sclerostin
# Protocol: as §1
# Chain of SOST (Q99P68 24-211): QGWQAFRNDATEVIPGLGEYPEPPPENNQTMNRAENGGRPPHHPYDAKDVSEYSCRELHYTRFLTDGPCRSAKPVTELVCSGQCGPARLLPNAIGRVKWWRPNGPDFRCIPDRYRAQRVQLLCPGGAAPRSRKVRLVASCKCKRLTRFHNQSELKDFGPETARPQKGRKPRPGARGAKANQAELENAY
compound,measurement,setting,value
CNCCC=C1c2ccccc2CCc2ccccc21 [nortriptyline],bone growth (quantity of bone formation present),[1],promoting bone growth
same,modulation of the Wnt pathway,[2],modulating the Wnt pathway
